Assay results published in patent US20150374851A1, “AAV VECTORS EXPRESSING SEC10 FOR TREATING KIDNEY DAMAGE” (The Trustees of the University of Pennsylvania, priority 2009, published 2015).

Legend:
normal MDCK cells = details: U0126 30 min, then 1 mM H2O2 plus U0126 30 min
Protocol: (§1) Normal and hSec10-overexpressing (Sec10) MDCK cells were grown on collagen-matrix for 12-14 days as described herein and then treated with 1 mM of hydrogen peroxide for 30 min. Some cells were treated with 10 μM U0126 30 min before the treatment of hydrogen peroxide. After the treatment cells were fixed with 4% paraformaldehyde and then stained with F-actin phalloidin-conjugated cy3. Numbers of damaged cysts were counted using fluorescence microscope.
(§2) Type II Madin-Darby canine kidney (MDCK) cells (Control cells) were obtained from Dr. K. Mostov (UCSF, San Francisco, Calif.). MDCK type II cells were overexpressing hSec10 (Sec10-overexpressing cells). See, e.g, Lipschutz et al, 2000 cited above. Cells were grown in modified Eagle's minimal essential medium (MEM) containing Earl's balanced salt solution and glutamine supplemented with 5% fetal calf serum, 100 U/ml penicillin, and 100 μg/m streptomycin on the plastic culture dishes. Some cells were grown on the 24-mm Transwell 0.45 μm polycarbonate filter units coated with collagen (Corning Life Sciences, Lowell, Mass.). Pore size on all filters was 0.4 μm. Cell monolayers were used for experiments after 7 d of culture with daily changes in medium. Cells were plated as single cells in a three-dimensional (3D) type I collagen gel. […]

[1] = system: Sec10-overexpressing MDCK cells; details: U0126 30 min, then 1 mM H2O2 plus U0126 30 min
Protocol: as §1, §2

control MDCK cells = system: control MDCK cells
Protocol: (§3) Type II Madin-Darby canine kidney (MDCK) cells (Control cells) were obtained from Dr. K. Mostov (UCSF, San Francisco, Calif.). MDCK type II cells were overexpressing hSec10 (Sec10-overexpressing cells). See, e.g, Lipschutz et al, 2000 cited above. Cells were grown in modified Eagle's minimal essential medium (MEM) containing Earl's balanced salt solution and glutamine supplemented with 5% fetal calf serum, 100 U/ml penicillin, and 100 μg/m streptomycin on the plastic culture dishes. Some cells were grown on the 24-mm Transwell 0.45 μm polycarbonate filter units coated with collagen (Corning Life Sciences, Lowell, Mass.). Pore size on all filters was 0.4 μm. Cell monolayers were used for experiments after 7 d of culture with daily changes in medium. Cells were plated as single cells in a three-dimensional (3D) type I collagen gel. To culture collagen matrix, cells grown on plastic culture dishes were harvested using trypsin-EDTA, and suspended cells on the type I collagen gel and then seeded in chamber slide for 14 days and then treated with H2O2 (Sigma-Aldrich, Co.).
(§4) Control cells and Sec10-overexpressing cells were grown on the Transwell filter for 7 days after seeding. TER was measured using epithelial volt-ohmmeter (Model EVOM, World Precision Instruments). TER values were presented as the measured resistance in ohm multiplied by the surface area of the Transwell filter.
(§5) 1) control and Sec10-overexpressing cells were treated with U0126 alone for 30 min, U0126 plus H2O2 for 30 min, and then U0126 alone for 24 hrs (FIG. 5A), and
(§6) 2) control and Sec10-overexpressing cells were treated with H2O2 for 30 min, and U0126 alone for 24 hrs (FIG. 5B).

[2] = system: Sec10-overexpressing MDCK cells
Protocol: as §3, §4, §5, §6

[3] = system: phosphorylated (active) ERK; details: 10 μM U0126 for 30 min, then 1 mM H2O2 for 30 min; Transwell filter
Protocol: Normal and hSec10-overexpressing (Sec10) MDCK cells were grown on transwell filter culture dish at confluence, incubated in either vehicle or 10 μM of U0126 (an inhibitor of ERK activation) for 30 min, and then treated with 1 mM of H2O2 for 30 min. After 30 min of incubation in U0126 cells were harvested and used to detect the levels of phosphorylated ERK. Cells were lysed in SDS buffer.
Briefly, cells or kidneys were harvested in the RIPA (Sigma Co.) containing proteinase inhibitor cocktail (Sigma. Co) and phosphatase inhibitor cocktail (Sigma. Co) and centrifuged 14,000 rpm for 20 min at 4° C. Supernatants, then, were collected and protein concentration was determined using BCA protein assay kit. Protein samples were mix SDS-sample buffer and denatured by 5 min of boiling at 95° C. The protein samples were separated on 4-12% SDS-PAGE gels and then transferred to an Immobilon membrane (Millipore Corp., Bedford, Mass.). The membranes were blocked by 5% of non-fat dry milk in PBS containing of 0.1% Tween-20 (PBS-T), and incubated in anti-phospho-ERK (1:1000, Cell signaling), -total-ERK (1:5000, Cell signaling), and -Sec10 (1:500; Lipschutz lab.) antibodies overnight at 4° C. After washing with 3 times with 0.1% PBS-T, the membranes were incubated with horseradish peroxidase-conjugated secondary antibodies for 1 h at RT. […]

N#CC(=C(/N)Sc1ccccc1N)/C(C#N)=C(\N)Sc1ccccc1N [U0126]
Numbers of damaged cysts (normal MDCK cells): increased
Numbers of damaged cysts [1]: increased
TER relative to TER in H2O2 alone (control MDCK cells): about 83%
TER recovery versus non-U0126 treated cells (control MDCK cells; control cells, 24 hrs after removal of H2O2): not significantly different
H2O2-induced decrease of TER (control MDCK cells; control cells, U0126 pretreatment 30 min, 1 mM H2O2): accelerated H2O2-induced decrease of TER
TER relative to TER in H2O2 alone [2]: about 80%
TER versus U0126-nontreated cells ([2]; Sec10-overexpressing cells, 24 hrs after removal of H2O2): significantly lower
H2O2-induced decrease of TER ([2]; Sec10-overexpressing cells, U0126 pretreatment 30 min, 1 mM H2O2): accelerated H2O2-induced decrease of TER
ERK phosphorylation caused by H2O2 treatment [3]: blocked ERK phosphorylation
